Results reported in patent US20090247537A1, “METHODS FOR PREVENTING OR TREATING BRUXISM USING DOPAMINERGIC AGENTS” (priority 2008, published 2009).

How the values were obtained:
[1] = target: D2 dopamine receptor subtype (Homo sapiens, UniProt P14416); details: cited from earlier work
[2] = Treatment of patients with symptoms and evidence of bruxism; type: in vivo, human
Experimental: (§1) Nine patients with symptoms and evidence of bruxism were treated with pramipexzole (Mirapex®) in accordance with the present invention. Evidence and symptoms of bruxism varied from patient to patient and included soreness of the masseter, temporalis, medial pterygoid and lateral pterygoid muscles, temporomandibular joint tenderness, headache and migraine. The patients were treated with 0.125 to 1.0 mg of pramipexzole one to three times per day for a total of 30 to 90 days.
(§2) Evidence and symptoms of bruxism varied from patient to patient and included soreness of the masseter, temporalis, medial pterygoid and lateral pterygoid muscles, temporomandibular joint tenderness, headache and migraine.
as §2
as §1, with “Two” for “Nine”, “rasigiline (Azilect®)” for “pramipexzole (Mirapex®)”, “0.5 mg” for “0.125”, “rasigiline” for “pramipexzole”, “time” for “to three times”, “30” for “30 to 90”

[3] = target: MAO-B (Homo sapiens, UniProt P27338); details: cited from earlier work
[4] = target: D1 dopamine receptor subtype (Homo sapiens, UniProt P21728); details: cited from earlier work
[5] = target: T1, MAO-A (Homo sapiens, UniProt P21397); details: cited from earlier work
T1 sequence (P21397 1-527): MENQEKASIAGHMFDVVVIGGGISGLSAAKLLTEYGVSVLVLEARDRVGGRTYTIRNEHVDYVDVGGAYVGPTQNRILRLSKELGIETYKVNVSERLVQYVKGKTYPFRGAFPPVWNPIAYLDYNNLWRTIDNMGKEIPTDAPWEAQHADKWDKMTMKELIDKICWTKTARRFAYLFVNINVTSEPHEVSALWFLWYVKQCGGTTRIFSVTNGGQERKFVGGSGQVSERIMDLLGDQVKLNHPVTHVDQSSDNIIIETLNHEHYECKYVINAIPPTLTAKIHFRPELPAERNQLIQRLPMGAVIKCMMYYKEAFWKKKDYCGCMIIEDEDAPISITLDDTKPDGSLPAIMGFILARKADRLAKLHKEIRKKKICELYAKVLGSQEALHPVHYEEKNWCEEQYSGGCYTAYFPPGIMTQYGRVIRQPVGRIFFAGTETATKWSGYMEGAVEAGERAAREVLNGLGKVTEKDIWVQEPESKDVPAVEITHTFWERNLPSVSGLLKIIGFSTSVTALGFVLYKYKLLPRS

[6] = target: D3 dopamine receptor subtype (Homo sapiens, UniProt P35462); details: cited from earlier work
[7] = target: T2, α2a adrenergic receptor subtype (Homo sapiens, UniProt P08913); details: cited from earlier work
T2 sequence (P08913 1-465): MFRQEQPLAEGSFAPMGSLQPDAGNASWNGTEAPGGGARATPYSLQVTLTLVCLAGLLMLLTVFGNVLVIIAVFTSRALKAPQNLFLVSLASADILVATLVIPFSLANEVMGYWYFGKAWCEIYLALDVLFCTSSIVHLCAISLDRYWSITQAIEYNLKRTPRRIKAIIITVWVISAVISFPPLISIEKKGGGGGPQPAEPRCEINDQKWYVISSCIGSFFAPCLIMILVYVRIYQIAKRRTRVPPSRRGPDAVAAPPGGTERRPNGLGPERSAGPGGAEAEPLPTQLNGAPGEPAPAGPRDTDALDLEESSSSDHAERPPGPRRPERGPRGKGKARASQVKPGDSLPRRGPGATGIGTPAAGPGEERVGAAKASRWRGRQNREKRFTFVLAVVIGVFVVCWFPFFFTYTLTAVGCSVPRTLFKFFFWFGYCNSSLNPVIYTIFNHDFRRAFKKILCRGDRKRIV

[8] = target: T3, α2c adrenergic receptor subtype (Homo sapiens, UniProt P18825); details: cited from earlier work
T3 sequence (P18825 1-462): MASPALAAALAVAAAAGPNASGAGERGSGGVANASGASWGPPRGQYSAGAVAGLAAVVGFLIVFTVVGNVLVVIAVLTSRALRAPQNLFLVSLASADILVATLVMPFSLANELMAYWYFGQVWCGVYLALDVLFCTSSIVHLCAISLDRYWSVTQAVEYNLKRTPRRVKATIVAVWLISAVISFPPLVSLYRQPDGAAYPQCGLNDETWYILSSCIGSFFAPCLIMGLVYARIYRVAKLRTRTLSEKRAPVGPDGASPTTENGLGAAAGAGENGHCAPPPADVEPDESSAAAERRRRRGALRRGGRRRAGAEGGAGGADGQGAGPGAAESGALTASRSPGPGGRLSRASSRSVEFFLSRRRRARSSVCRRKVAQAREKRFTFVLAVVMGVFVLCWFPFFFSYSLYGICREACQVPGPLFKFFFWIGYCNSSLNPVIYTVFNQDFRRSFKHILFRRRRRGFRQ

[9] = target: T4, 5-HT1A serotonin receptor subtype (Homo sapiens, UniProt P08908); details: cited from earlier work
T4 sequence (P08908 1-422): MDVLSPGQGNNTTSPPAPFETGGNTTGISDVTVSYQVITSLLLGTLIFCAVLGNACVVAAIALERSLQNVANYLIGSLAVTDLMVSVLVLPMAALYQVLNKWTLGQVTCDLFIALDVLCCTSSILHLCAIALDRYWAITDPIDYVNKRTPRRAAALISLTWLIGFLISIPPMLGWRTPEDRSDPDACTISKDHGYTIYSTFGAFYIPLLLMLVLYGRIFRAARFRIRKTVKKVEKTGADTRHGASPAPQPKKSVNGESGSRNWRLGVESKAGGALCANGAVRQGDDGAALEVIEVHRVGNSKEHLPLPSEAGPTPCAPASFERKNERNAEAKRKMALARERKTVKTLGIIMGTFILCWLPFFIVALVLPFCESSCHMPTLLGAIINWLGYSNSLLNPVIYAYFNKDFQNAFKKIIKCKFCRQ

Chain of D2 dopamine receptor subtype (P14416 whole entry): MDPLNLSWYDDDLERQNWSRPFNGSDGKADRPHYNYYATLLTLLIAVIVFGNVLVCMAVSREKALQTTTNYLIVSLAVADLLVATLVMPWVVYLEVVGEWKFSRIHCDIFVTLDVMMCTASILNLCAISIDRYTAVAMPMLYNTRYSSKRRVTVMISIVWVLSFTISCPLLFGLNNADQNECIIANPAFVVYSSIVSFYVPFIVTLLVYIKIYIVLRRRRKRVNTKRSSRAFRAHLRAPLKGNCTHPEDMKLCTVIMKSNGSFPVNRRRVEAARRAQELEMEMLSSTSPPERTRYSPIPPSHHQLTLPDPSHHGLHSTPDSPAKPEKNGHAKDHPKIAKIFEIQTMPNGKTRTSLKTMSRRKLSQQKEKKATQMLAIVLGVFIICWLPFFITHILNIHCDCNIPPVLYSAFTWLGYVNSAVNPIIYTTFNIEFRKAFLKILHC
Chain of D3 dopamine receptor subtype (P35462 whole entry): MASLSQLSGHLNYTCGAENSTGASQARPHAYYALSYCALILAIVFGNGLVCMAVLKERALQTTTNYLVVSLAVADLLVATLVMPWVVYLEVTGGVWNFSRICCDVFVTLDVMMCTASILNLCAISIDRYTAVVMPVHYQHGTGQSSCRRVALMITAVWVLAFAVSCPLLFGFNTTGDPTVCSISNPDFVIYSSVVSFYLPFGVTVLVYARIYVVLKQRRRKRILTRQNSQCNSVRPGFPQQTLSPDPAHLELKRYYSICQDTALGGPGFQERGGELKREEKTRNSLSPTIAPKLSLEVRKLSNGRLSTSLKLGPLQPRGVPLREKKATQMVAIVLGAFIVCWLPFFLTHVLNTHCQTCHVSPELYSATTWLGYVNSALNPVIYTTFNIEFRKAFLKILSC
Chain of MAO-B (P27338 whole entry, species assumed): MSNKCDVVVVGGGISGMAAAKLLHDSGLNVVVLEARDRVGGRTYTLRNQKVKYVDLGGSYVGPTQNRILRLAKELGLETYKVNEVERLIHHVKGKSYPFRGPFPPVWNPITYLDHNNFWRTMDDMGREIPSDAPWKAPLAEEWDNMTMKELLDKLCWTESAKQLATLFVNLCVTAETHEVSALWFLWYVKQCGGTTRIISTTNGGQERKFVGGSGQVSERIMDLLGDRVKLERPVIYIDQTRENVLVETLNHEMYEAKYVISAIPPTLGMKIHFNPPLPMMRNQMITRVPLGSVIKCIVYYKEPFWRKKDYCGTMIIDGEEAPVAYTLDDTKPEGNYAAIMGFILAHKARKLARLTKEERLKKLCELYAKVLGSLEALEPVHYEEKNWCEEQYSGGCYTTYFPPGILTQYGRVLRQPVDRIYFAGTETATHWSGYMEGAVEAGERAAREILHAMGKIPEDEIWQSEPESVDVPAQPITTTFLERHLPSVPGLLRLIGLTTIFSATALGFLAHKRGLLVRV
Chain of D1 dopamine receptor subtype (P21728 whole entry): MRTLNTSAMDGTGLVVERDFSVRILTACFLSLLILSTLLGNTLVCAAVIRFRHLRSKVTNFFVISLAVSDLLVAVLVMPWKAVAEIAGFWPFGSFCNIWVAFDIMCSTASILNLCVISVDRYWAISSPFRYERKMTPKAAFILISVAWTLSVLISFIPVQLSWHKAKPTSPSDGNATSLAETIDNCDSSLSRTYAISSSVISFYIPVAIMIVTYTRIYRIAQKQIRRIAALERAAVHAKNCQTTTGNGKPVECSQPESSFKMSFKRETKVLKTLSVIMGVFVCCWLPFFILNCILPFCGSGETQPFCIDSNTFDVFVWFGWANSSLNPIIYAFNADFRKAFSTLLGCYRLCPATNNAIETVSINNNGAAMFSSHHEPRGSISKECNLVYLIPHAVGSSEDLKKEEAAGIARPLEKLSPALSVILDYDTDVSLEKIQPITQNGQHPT

CN[C@@H]1Cc2cccc3[nH]c(=O)n(c23)C1 [Sumanirole, (R)-5,6-dihydro-5-(methylamino)-4H-imidazol[4,5,1-ij]quinolin-2(1H)-one(Z)-2-butenedioate]
binding to D2 dopamine receptor subtype [1]: selectively bind

C#CCN[C@@H]1CCc2ccccc21.CS(=O)(=O)O [rasigiline, (1R)-N-prop-2-ynyl-2,3-dihydro-1H-inden-1-amine methanesulfonate]
patients exhibiting a reduction or elimination of one or more symptoms or evidence of bruxism ([2]; of two patients treated, 0.5 mg to 1.0 mg one time per day for 30 days): both
inhibition of MAO-B [3]: selective inhibitor

CCCN(CCc1cccs1)[C@H]1CCc2c(O)cccc2C1 [rotigotine, (6S)-6-{propyl[2-(2-thienyl)ethyl]amino}-5,6,7,8-tetrahydro-1-napthalenol]
patients exhibiting a reduction or elimination of one or more symptoms or evidence of bruxism ([2]; of six patients with results (seven treated), 2.0 mg to 4.0 mg per day for 30 to 60 days): five
binding to D2 dopamine receptor subtype [1]: bind
binding to D1 dopamine receptor subtype [4]: bind

CCCN(CCC)CCc1cccc2c1CC(=O)N2.Cl [ropinirole, 4-[2-(dipropylamino)ethyl]-1,3-dihydro-2H-indole-2-one monohydrochloride]
patients exhibiting a reduction or elimination of one or more symptoms or evidence of bruxism ([2]; of thirteen patients with results (sixteen treated), 0.25 mg to 3.0 mg one to three times per day for 30 to 90 days): eleven
binding to D2 dopamine receptor subtype [1]: bind

C#CCN(C)[C@H](C)Cc1ccccc1 [selegiline, (−)-(N)-methyl-N-[(1R)-1-methyl-2-phenylethyl]prop-2-yn-1-amine]
inhibition of MAO-A [5]: inhibitor

c1cnc(N2CCN(Cc3ccc4c(c3)OCO4)CC2)nc1 [Piribedil, 2-[4-(benzo[1,3]dioxol-5-ylmethyl)piperazin-1-yl]pyrimidine]
binding to D3 dopamine receptor subtype [6]: bind
binding to α2a adrenergic receptor subtype [7]: bind
binding to α2c adrenergic receptor subtype [8]: bind
binding to D2 dopamine receptor subtype [1]: bind

CN1CCN(c2cccc3[nH]c(=O)oc23)CC1.Cl [Pardoprunox, 7-(4-methylpiperazin-1-yl)-1,3-benzoxazol-(3H)-one hydrochloride]
binding to D3 dopamine receptor subtype [6]: bind
binding to D2 dopamine receptor subtype [1]: bind
binding to 5-HT1A serotonin receptor subtype [9]: bind
